Source: patent publication US10214519B2, “Phosphatidylinositol 3-kinase inhibitors” (Gilead Sciences, Inc., priority 2016, dated 2019)

Molecular target: PI3Kβ (Homo sapiens (Human), UniProt P42338)
Experiment: PI3K isoform TR-FRET enzymatic assay (PI3Kβ)
Assay type: biochemical
Settings: 2× Km ATP, 30 minutes at 25° C.
Summary of the method: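 IC50 came from four-parameter dose-response fits, normalized between DMSO and 1 μM wortmannin controls. The read-out was TR-FRET (615/665 nm) of PIP3 displacing fluorescent PIP3 from Europium GRP-1 after 10 mM EDTA termination. Compounds were incubated with purified heterodimeric PI3Kβ for 30 min at 25° C.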

PI3Kβ, sequence (P42338 whole entry, canonical isoform): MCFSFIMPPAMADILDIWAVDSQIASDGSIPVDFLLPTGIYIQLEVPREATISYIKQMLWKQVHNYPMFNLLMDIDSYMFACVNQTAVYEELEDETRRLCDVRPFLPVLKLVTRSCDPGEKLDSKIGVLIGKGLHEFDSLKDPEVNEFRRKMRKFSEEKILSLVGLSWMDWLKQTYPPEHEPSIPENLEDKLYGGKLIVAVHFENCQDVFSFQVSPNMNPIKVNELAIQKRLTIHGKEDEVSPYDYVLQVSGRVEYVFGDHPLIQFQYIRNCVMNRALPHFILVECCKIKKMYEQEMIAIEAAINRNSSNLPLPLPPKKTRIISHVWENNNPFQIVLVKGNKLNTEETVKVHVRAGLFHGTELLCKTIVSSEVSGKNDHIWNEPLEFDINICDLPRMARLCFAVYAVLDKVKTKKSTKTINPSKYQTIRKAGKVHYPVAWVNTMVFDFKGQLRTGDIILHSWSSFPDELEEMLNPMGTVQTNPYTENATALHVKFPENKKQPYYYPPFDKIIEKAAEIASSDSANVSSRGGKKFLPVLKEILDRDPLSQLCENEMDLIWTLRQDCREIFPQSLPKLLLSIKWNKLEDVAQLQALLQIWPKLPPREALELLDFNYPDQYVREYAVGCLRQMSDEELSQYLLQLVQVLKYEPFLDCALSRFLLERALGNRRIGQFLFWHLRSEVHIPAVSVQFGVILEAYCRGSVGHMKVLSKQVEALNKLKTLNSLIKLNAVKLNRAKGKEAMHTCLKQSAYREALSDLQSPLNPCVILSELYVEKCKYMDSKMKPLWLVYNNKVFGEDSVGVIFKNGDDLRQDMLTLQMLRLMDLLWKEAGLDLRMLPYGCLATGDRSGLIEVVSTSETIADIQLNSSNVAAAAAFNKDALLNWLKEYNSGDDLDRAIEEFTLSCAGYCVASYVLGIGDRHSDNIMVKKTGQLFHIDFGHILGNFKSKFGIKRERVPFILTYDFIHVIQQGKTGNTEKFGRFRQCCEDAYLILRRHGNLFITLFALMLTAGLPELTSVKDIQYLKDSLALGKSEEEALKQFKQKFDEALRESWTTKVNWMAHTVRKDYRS
PI3Kβ, sequence (P27986 whole entry partner, canonical isoform): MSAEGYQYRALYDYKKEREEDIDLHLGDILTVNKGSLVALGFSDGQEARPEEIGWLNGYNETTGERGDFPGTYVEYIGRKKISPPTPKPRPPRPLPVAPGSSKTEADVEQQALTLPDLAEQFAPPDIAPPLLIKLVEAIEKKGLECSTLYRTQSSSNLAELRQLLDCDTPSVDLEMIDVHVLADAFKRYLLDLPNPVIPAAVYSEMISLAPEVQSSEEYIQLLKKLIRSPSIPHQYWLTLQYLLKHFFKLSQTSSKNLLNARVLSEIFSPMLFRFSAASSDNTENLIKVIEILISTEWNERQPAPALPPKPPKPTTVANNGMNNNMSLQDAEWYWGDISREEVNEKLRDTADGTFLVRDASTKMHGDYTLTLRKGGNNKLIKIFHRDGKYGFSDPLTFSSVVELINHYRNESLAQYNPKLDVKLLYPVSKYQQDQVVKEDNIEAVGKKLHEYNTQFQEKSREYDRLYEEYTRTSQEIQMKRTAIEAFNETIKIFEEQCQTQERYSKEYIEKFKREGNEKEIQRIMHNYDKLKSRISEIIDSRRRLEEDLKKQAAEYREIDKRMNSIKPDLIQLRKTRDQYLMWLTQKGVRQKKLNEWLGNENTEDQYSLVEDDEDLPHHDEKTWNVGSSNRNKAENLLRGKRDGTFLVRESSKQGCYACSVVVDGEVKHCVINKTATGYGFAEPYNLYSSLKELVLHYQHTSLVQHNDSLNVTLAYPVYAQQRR

| SMILES | IC50 [µM] |
| --- | --- |
| Cc1nc2c(-c3cncs3)cc(N3CCOCC3)cc2n1-c1ccnc2c(Cl)cccc12 [Example 276, 4-[3-(8-chloroquinolin-4-yl)-2-methyl-7-(1,3-thiazol-5-yl)benzimidazol-5-yl]morpholine] | 0.42 |
| Cc1nc2c(-c3cncn3C)cc(N3CCOCC3)cc2n1-c1ccnc2c(Cl)cccc12 [Example 202, 4-[3-(8-chloroquinolin-4-yl)-2-methyl-7-(3-methylimidazol-4-yl)benzimidazol-5-yl]morpholine] | > 10 |
| CCCc1nc2c(-c3ccn[nH]3)cc(N3CCOCC3)cc2n1-c1ccnc2c(F)ccc(F)c12 (atropisomer, axis not shown) [Compound 368, 4-(1-(5,8-difluoroquinolin-4-yl)-2-propyl-4-(1H-pyrazol-5-yl)-1H-benzo[d]imidazol-6-yl)morpholine] | 0.018 |
| Fc1ccc2c(-n3c(C4CC4)nc4c(-c5nnc[nH]5)cc(N5CCOCC5)cc43)ccnc2c1F [Example 143, 4-[2-cyclopropyl-3-(7,8-difluoroquinolin-4-yl)-7-(4H-1,2,4-triazol-3-yl)benzimidazol-5-yl]morpholine] | 0.084 |
| Cc1cc(-n2c(C)nc3c(-c4nc(C)n[nH]4)cc(N4CCOCC4)cc32)c2cccc(C(F)(F)F)c2n1 [Example 77, 4-[2-methyl-7-(3-methyl-1H-1,2,4-triazol-5-yl)-3-[2-methyl-8-(trifluoromethyl)quinolin-4-yl]benzimidazol-5-yl]morpholine] | 0.097 |
| Cc1nc2c(-c3ncco3)cc(N3CCOCC3)cc2n1-c1ccnc2c(F)cccc12 (atropisomer, axis not shown) [Example 340, 4-[3-(8-fluoroquinolin-4-yl)-2-methyl-7-(1,3-oxazol-2-yl)benzimidazol-5-yl]morpholine] | 1.9 |
| Clc1ncc(-c2cc(N3CCOCC3)cc3c2nc(C2CC2)n3-c2ccnc3c(Cl)cccc23)[nH]1 [Example 290, 4-[7-(2-chloro-1H-imidazol-5-yl)-3-(8-chloroquinolin-4-yl)-2-cyclopropylbenzimidazol-5-yl]morpholine] | 0.068 |
| Cc1cc(-n2c(C)nc3c(-c4nnc[nH]4)cc(N4CCOCC4)cc32)c2ccc(F)cc2n1 [Example 63, 4-[3-(7-fluoro-2-methylquinolin-4-yl)-2-methyl-7-(4H-1,2,4-triazol-3-yl)benzimidazol-5-yl]morpholine] | 0.028 |
| CCCc1nc2c(-c3nnc(C)[nH]3)cc(N3CCOCC3)cc2n1-c1ccnc2c(Cl)cccc12 [Example 46, 4-(1-(8-chloroquinolin-4-yl)-4-(5-methyl-4H-1,2,4-triazol-3-yl)-2-propyl-1H-benzo[d]imidazol-6-yl)morpholine] | 0.019 |
| Cc1nnc(-c2cc(N3CCOCC3)cc3c2nc(C2CC2)n3-c2ccnc3c(Cl)cccc23)[nH]1 [Example 47, 4-(1-(8-chloroquinolin-4-yl)-2-cyclopropyl-4-(5-methyl-4H-1,2,4-triazol-3-yl)-1H-benzo[d]imidazol-6-yl)morpholine] | 0.018 |
| Cc1nc2c(-c3ccncc3)cc(N3CCOCC3)cc2n1-c1ccnc2c(-c3ccncc3)cccc12 [Example 320, 4-[2-methyl-7-pyridin-4-yl-3-(8-pyridin-4-ylquinolin-4-yl)benzimidazol-5-yl]morpholine] | > 10 |
| Fc1ccc(F)c2c(-n3c(C4CC4)nc4c(-c5ncco5)cc(N5CCOCC5)cc43)ccnc12 [Example 231, 4-[2-cyclopropyl-3-(5,8-difluoroquinolin-4-yl)-7-(1,3-oxazol-2-yl)benzimidazol-5-yl]morpholine] | 0.016 |
| Clc1cccc2c(-n3c(C4CCCO4)nc4c(-c5ccccc5)cc(N5CCOCC5)cc43)ccnc12 (centres unmarked) [Example 198] | 0.12 |
| Clc1cccc2c(-n3c(C4CCCO4)nc4c(-c5cccnc5)cc(N5CCOCC5)cc43)ccnc12 (centres unmarked) [Example 199] | 0.61 |
| Fc1cccc2c(-n3c(C4CC4)nc4c(-c5cnc(Cl)[nH]5)cc(N5CCOCC5)cc43)ccnc12 [Example 287, 4-[7-(2-chloro-1H-imidazol-5-yl)-2-cyclopropyl-3-(8-fluoroquinolin-4-yl)benzimidazol-5-yl]morpholine] | 0.056 |
| CCc1nc2c(-c3nnc[nH]3)cc(N3CCOCC3)cc2n1-c1c(-c2nnc[nH]2)cnc2ccccc12 [Example 391, 4-(1-(3-(4H-1,2,4-triazol-3-yl)quinolin-4-yl)-2-ethyl-4-(4H-1,2,4-triazol-3-yl)-1H-benzo[d]imidazol-6-yl)morpholine] | 0.01 |

Further molecules by falling IC50, results first:

| IC50 [µM] | SMILES |
| --- | --- |
| 0.17 | Cc1nc2c(-c3cn[nH]c3)cc(N3CCOCC3)cc2n1-c1ccnc2c(Cl)cccc12 [Example 183, 4-(1-(8-chloroquinolin-4-yl)-2-methyl-4-(1H-pyrazol-4-yl)-1H-benzo[d]imidazol-6-yl)morpholine] |
| 0.077 | Cc1nc2c(-c3nnco3)cc(N3CCOCC3)cc2n1-c1ccnc2c(Cl)cccc12 [Example 162, 4-(1-(8-chloroquinolin-4-yl)-2-methyl-4-(1,3,4-oxadiazol-2-yl)-1H-benzo[d]imidazol-6-yl)morpholine] |
| 0.056 | CCc1nc2c(-c3nc(C)cs3)cc(N3CCOCC3)cc2n1-c1ccnc2c(F)cccc12 [Example 232, 4-[2-ethyl-3-(8-fluoroquinolin-4-yl)-7-(4-methyl-1,3-thiazol-2-yl)benzimidazol-5-yl]morpholine] |
| 0.027 | Cc1nc2c(-c3nnc[nH]3)cc(N3CCOCC3)c(F)c2n1-c1ccnc2c(Cl)ccc(F)c12 [Example 150, 4-(1-(8-chloro-5-fluoroquinolin-4-yl)-7-fluoro-2-methyl-4-(4H-1,2,4-triazol-3-yl)-1H-benzo[d]imidazol-6-yl)morpholine] |
| 0.024 | c1ccc2c(-n3cnc4c(-c5nnc[nH]5)cc(N5CCOCC5)cc43)cc(-c3cn[nH]c3)nc2c1 [Example 381, 4-(1-(2-(1H-pyrazol-4-yl)quinolin-4-yl)-4-(4H-1,2,4-triazol-3-yl)-1H-benzo[d]imidazol-6-yl)morpholine] |
| 0.011 | CCc1nc2c(-c3ncco3)cc(N3CCOCC3)cc2n1-c1ccnc2c(Cl)c(F)ccc12 [Example 218, 4-[3-(8-chloro-7-fluoroquinolin-4-yl)-2-ethyl-7-(1,3-oxazol-2-yl)benzimidazol-5-yl]morpholine] |
| 0.011 | Cc1nc2c(-c3nnc[nH]3)cc(N3CCOCC3)cc2n1-c1ccnc2cc(F)ccc12 [Example 90, 4-[3-(7-fluoroquinolin-4-yl)-2-methyl-7-(4H-1,2,4-triazol-3-yl)benzimidazol-5-yl]morpholine] |
| 0.01 | Cc1nc2c(-c3nnc(Cl)[nH]3)cc(N3CCOCC3)cc2n1-c1ccnc2c(Cl)cccc12 (atropisomer, axis not shown) [Compound 358, 4-[3-(8-chloroquinolin-4-yl)-7-(5-chloro-4H-1,2,4-triazol-3-yl)-2-methylbenzimidazol-5-yl]morpholine] |
| 0.007 | CCc1nc2c(-c3cnc(Cl)[nH]3)cc(N3CCOCC3)cc2n1-c1ccnc2c(F)ccc(F)c12 (atropisomer, axis not shown) [Compound 347, 4-[7-(2-chloro-1H-imidazol-5-yl)-3-(5,8-difluoroquinolin-4-yl)-2-ethylbenzimidazol-5-yl]morpholine] |
| 0.003 | Fc1ccc(F)c2c(-n3cnc4c(-c5nnc[nH]5)cc(N5CCOCC5)cc43)ccnc12 [Example 28, 4-(1-(5,8-difluoroquinolin-4-yl)-4-(4H-1,2,4-triazol-3-yl)-1H-benzo[d]imidazol-6-yl)morpholine] |
